Data taken from US7375074B2, “Body weight gain inhibitor” (priority 2001, dated 2008).
No end group written: not given here. *: point of attachment. 125I = [125I]*

What was measured:
[1] = target: T1, TGR26 (Rattus norvegicus, UniProt Q56UD9); assay: Receptor binding using [125I-Tyr10]-hGPR8L(1-23) and membrane fraction of TGR26 expressing CHO cells; settings: membrane fraction of TGR26 expressing CHO cells, 3 μg/ml
T1 construct: treated with restriction enzymes ClaI and SpeI, and the insert encoding TGR26 was excised; expressed in transfected cells; host or cells: CHO dhfr- cells, plasmid pAK-rGPR7; membrane fraction
T1 sequence (Q56UD9 1-329): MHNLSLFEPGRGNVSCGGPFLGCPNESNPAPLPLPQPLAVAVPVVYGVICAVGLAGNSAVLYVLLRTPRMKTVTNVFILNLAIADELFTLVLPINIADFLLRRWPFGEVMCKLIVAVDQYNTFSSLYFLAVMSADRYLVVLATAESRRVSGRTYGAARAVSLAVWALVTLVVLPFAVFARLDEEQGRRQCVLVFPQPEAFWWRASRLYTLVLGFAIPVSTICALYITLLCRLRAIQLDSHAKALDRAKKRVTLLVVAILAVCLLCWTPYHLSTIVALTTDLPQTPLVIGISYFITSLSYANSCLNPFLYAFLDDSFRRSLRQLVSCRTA
Method: Using [^125I-Tyr^10]-hGPR8L(1-23) prepared by the method described in Reference Example 42 and a cell membrane fraction prepared from TGR26 expressing cells as described in Example 6, a receptor binding assay was carried out as follows.
Cell membrane fraction prepared from TGR26 expressing cells was diluted to various concentration with assay buffer (25 mM Tris-HCl, 5 mM EDTA, 0.05% CHAPS (3-[(3-Cholamidopropyl) Dimethyl-Ammonio]-1-Propanesulfonate), 0.1% BSA, 0.5 mM PMSF, 1 μg/ml Pepstatin, 20 μg/ml Leupeptin, 4 μg/ml E-64, pH7.4), and 200 μl each of the diluent was dispensed into polypropilene test tube (Falcon 2053). In order to determine an amount of maximum binding, 2 μl of DMSO and 2 μl of 7 nM [^125I-Tyr^10]-hGPR8L(1-23) were added to the membrane fraction solution. […] After filtration, a radioactivity remaining on the filter was counted using γ-counter, and an amount of specific binding was estimated by subtracting an amount of non-specific binding from an amount of maximum binding. […]
A receptor binding activity of human- and porcine-homologue derivatives of GPR8 ligand peptide obtained in the reference examples was measured using a membrane fraction of TGR26 expressing CHO cells and [^125I-Tyr^10]-hGPR8L(1-23) by the method described in Reference Example 73. […]

[2] = target: T2, human GPR8 (Homo sapiens, UniProt P48146); assay: Receptor binding using [125I-Tyr10]-hGPR8L(1-23) and membrane fraction of GPR8 expressing CHO cells; settings: membrane fraction of human GPR8 expressing cells
T2 construct: expressed in transfected cells; host or cells: CHO dhfr- cells, plasmid pAKKO-GPR8; membrane fraction
T2 sequence (P48146 whole entry): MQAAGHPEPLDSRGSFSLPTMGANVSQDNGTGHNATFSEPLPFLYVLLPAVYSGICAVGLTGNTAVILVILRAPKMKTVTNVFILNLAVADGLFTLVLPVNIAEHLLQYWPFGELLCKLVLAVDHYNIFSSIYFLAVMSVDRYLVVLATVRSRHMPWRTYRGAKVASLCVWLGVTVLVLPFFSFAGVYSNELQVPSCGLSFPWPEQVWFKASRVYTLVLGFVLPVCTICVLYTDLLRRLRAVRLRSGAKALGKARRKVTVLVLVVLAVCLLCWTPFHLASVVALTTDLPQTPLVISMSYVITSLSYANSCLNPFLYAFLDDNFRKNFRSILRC

IC50 [1] [nM] | specific binding compared with [125I-Tyr2]-hGPR8L(1-23) [2] | Molecule
0.12 |  | CSCC[C@H](NC(=O)[C@H](CC(C)C)NC(=O)[C@H](CC(C)C)NC(=O)CNC(=O)[C@H](C)NC(=O)[C@H](C)NC(=O)[C@H](CCCNC(=N)N)NC(=O)CNC(=O)[C@@H](NC(=O)[C@@H](NC(=O)[C@H](Cc1c[nH]cn1)NC(=O)[C@H](Cc1ccc(O)cc1)NC(=O)[C@H](CCCNC(=N)N)NC(=O)[C@@H]1CCCN1C(=O)[C@H](CO)NC(=O)[C@H](C)NC(=O)[C@@H](NC(=O)[C@H](Cc1c[nH]cn1)NC(=O)[C@H](CCCCN)NC(=O)[C@H](Cc1ccc(O)cc1)NC(=O)[C@@H](N)Cc1c[nH]c2ccccc12)[C@@H](C)O)[C@@H](C)O)C(C)C)C(=O)NCC(=O)N[C@@H](CC(C)C)C(=O)O [pGPR8L(1-23)]
 | twice as much | [^125I-Tyr^10]-hGPR8L(1-23): hGPR8L(1-23) iodinated with 125I at Tyr10 by the lactoperoxidase method; radioligand (WYKHVASPRY(125I)HTVGRAAGLLMGL)
